Reference: patent US20050250822A1, “Substituted benzanilide compound and noxious organism controlling agent” (priority 2002, published 2005)

Assays:
[1] = tested on: diamondback moths (Plutella xylostella) with second instar larvae; assay: Insecticidal test against diamondback moth (leaf dip); format: in vivo; details: foliar, 144 h, chemical solution 100 ppm, leaf dip, 25° C., dead insects counted after 6 days, read-out: insecticidal rate (rate of dead insects)
Procedure: Insecticidal Test Against Diamondback Moth
(§1) A 10% emulsifiable concentrate (depending on the compounds, 25% wettable powder was applied for the test) of the compound of the present invention was diluted with water containing a spreading agent to prepare a chemical solution with a concentration of 100 ppm. To the chemical solution was dipped leaves of Chinese olive for about 10 seconds, and after air-drying, they were placed in a laboratory dish, then, 10 diamondback moths (Plutella xylostella) with second instar larvae per the dish were released therein, and the dish was covered with a lid having holes and contained at a thermostat chamber at 25° C. A number of dead insect(s) after 6 days was counted and a rate of dead insects was calculated in the same manner as in Test Example 1. Incidentally, the test was carried out with two districts.

[2] = tested on: Common cutworms (Spodoptera litura) with second instar larvae; assay: Insecticidal test against common cutworm (leaf dip); format: in vivo; details: foliar, 144 h, chemical solution 100 ppm, leaf dip, 25° C., dead insects counted after 6 days, read-out: insecticidal rate (rate of dead insects)
Procedure: Insecticidal Test Against Common Cutworm
as §1, with “10 Common cutworms (Spodoptera litura)” for “10 diamondback moths (Plutella xylostella)”, “calculated by” for “calculated in”, “the following calculation formula.” for “the same manner as in Test Example 1.”, “districts. Rate of dead insects (%)=(Number of dead insects/Number of released insects)×100” for “districts.”

## CC1=NOC(c2ccc(NC(=O)c3c(I)cccc3C(=O)NC(C)C)c(C)c2)(C(F)(F)F)C1 (stereo not drawn) [1-007, 6-iodo-N^2-isopropyl-N^1-[2-methyl-4-(3-methyl-5-trifluoromethyl-4,5-dihydroisoxazol-5-yl)phenyl]phthalic diamide]
[1]
  pest or weed control at 100 ppm: ≥ 80%

## Cc1cc(C2(C(F)(F)F)CN=C(c3ccc(Cl)cc3)S2)ccc1NC(=O)c1cccc(I)c1C(=O)NC(C)C (stereo not drawn) [4-04, N^1-[4-[2-(4-chlorophenyl)-5-trifluoromethyl-4,5-dihydrothiazol-5-yl]-2-methylphenyl]-3-iodo-N^2-isopropylphthalic diamide]
[2]
  pest or weed control at 100 ppm: ≥ 80%
[1]
  pest or weed control at 100 ppm: ≥ 80%

## Cc1cc(C2(C3CC3)CC(c3ccc(Cl)cc3)=NO2)ccc1NC(=O)c1cccc(I)c1C(=O)NC(C)C (stereo not drawn) [2-013, N^1-[4-[3-(4-chlorophenyl)-5-cyclopropyl-4,5-dihydroisoxazol-5-yl]-2-methylphenyl]-3-iodo-N 2-isopropylphthalic diamide]
[2]
  pest or weed control at 100 ppm: ≥ 80%
[1]
  pest or weed control at 100 ppm: ≥ 80%

## Cc1cc(C2(c3ccc(Cl)cc3)CC2(F)F)ccc1NC(=O)c1cccc(I)c1C(=O)NC(C)CS(C)(=O)=O (stereo not drawn) [9-065, N^1-[4-(2,2-difluoro-1-(4-chlorophenyl)cyclopropyl)-2-methylphenyl]-3-iodo-N^2-(1-methyl-2-methylsulfonylethyl)phthalic diamide]
[2]
  pest or weed control at 100 ppm: ≥ 80%
[1]
  pest or weed control at 100 ppm: ≥ 80%

## Cc1cc(C2(C(F)(F)F)C=NC(c3ccccc3)C2)ccc1NC(=O)c1cccc(I)c1C(=O)NC(C)C (stereo not drawn) [7-04, 3-Iodo-N^2-isopropyl-N^1-[2-methyl-4-(2-phenyl-4-trifluoromethyl-3,4-dihydro-2H-pyrrol-4-yl)phenyl]phthalic diamide]
[2]
  pest or weed control at 100 ppm: ≥ 80%
[1]
  pest or weed control at 100 ppm: ≥ 80%

## Cc1cc(C2(C(F)(F)F)CC(C#N)=C(c3ccccc3)O2)ccc1NC(=O)c1cccc(I)c1C(=O)NC(C)C (stereo not drawn) [4-01, N^1-[4-(3-cyano-2-phenyl-5-trifluoromethyl-4,5-dihydrofuran-5-yl)-2-methylphenyl]-3-iodo-N 2-isopropylphthalic diamide]
[1]
  pest or weed control at 100 ppm: ≥ 80%

## CC1=NN(c2ccc(Cl)cc2)C(c2ccc(NC(=O)c3cccc(I)c3C(=O)NC(C)C)c(C)c2)C1 (stereo not drawn) [6-02, N^1-[4-[1-(4-chlorophenyl)-3-methyl-4,5-dihydropyrazol-5-yl]-2-methylphenyl]-3-iodo-N^2-isopropylphthalic diamide]
[1]
  pest or weed control at 100 ppm: ≥ 80%

## Cc1cc(C2(C(F)(F)F)OCC(c3ccc(Cl)cc3)S2)ccc1NC(=O)c1cccc(I)c1C(=O)NC(C)C (stereo not drawn) [7-09, N^1-[4-[4-(4-chlorophenyl)-2-trifluoromethyl-1,3-oxathiolan-2-yl]-2-methylphenyl]-3-iodo-N^2-isopropylphthalic diamide]
[1]
  pest or weed control at 100 ppm: ≥ 80%

## CCOC(=O)C1=NOC(c2ccc(NC(=O)c3c(I)cccc3C(=O)NC(C)C)c(C)c2)(C(F)(F)F)C1 (stereo not drawn) [1-020, N^1-[4-(3-ethoxycarbonyl-5-trifluoromethyl-4,5-dihydroisoxazol-5-yl)-2-methylphenyl]-6-iodo-N^2-isopropylphthalic diamide]
[1]
  pest or weed control at 100 ppm: ≥ 80%

## Cc1cc(C2(C(F)(F)F)CC(C(F)(F)F)=NO2)ccc1NC(=O)c1cccc(I)c1C(=O)NC(C)C (stereo not drawn) [1-013, 3-Iodo-N^2-isopropyl-N^1-[2-methyl-4-(3,5-bistrifluoromethyl-4,5-dihydroisoxazol-5-yl)phenyl]phthalic diamide]
[1]
  pest or weed control at 100 ppm: ≥ 80%

## CCN(CC)C(=O)c1c(I)cccc1C(=O)Nc1ccc(C2(C(F)(F)F)CC(c3ccc(S(C)(=O)=O)cc3)=NO2)cc1C (stereo not drawn) [2-162, N^2, N^2-diethyl-3-iodo-N^1-[4-[3-(4-methylsulfonylphenyl)-5-trifluoromethyl-4,5-dihydroisoxazol-5-yl]-2-methylphenyl]phthalic diamide]
[1]
  pest or weed control at 100 ppm: ≥ 80%
